Our source for the relative viability values is the supplement of paper PMC10307832.

Holding throughout (assay): relative viability (nuclei count vs DMSO), 5 days (fraction); higher = more cells survive
Compound in test [1]: COc1cc2nccc(Oc3ccc(NC(=O)C4(C(=O)Nc5ccc(F)cc5)CC4)cc3)c2cc1OC [Cabozantinib] + COc1cccc2cc(-c3nc([C@H]4CC[C@H](C(=O)O)CC4)n4ncnc(N)c34)[nH]c12 [OSI-027] (partner 0.5 µM)
In short, it runs like this:
(§1)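 A single step with final 0.05% Triton X-100, 1% formaldehyde and 1 ug/ml Hoechst fixed the cells and stained nuclei 5 days after treatment. Lung cancer cell lines in 1536-well plates had been treated by pin tool the day after seeding with one drug alone or a fixed anchor-drug dose plus five library-drug doses (not always all listed) in √10 steps, and nuclei were counted on 4× images. Relative viability is the ratio of nuclei in treated wells to nuclei in vehicle wells, taken as the median of duplicate plates.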

Compound in test [2]: O[C@@H](COc1cccc2ncccc12)CN1CCN([C@@H]2c3ccccc3[C@@H]3[C@H](c4ccccc42)C3(F)F)CC1 [Zosuquidar] + CS(=O)(=O)N1CCN(Cc2cc3nc(-c4cccc5[nH]ncc45)nc(N4CCOCC4)c3s2)CC1 [Pictilisib] (partner 1 µM)
In short, it runs like this: as §1

Compound in test [3]: O[C@@H](COc1cccc2ncccc12)CN1CCN([C@@H]2c3ccccc3[C@@H]3[C@H](c4ccccc42)C3(F)F)CC1 [Zosuquidar] + O=C(CCCCCCC(=O)Nc1ccccc1)NO [Vorinostat] (partner 1 µM)
In outline: as §1

Compound in test [4]: C1=CC(=CC=C1NC(=S)NNC2=C(C=C(C=C2[N+](=O)[O-])C(F)(F)F)[N+](=O)[O-])F [Kobe2602] + Cc1cc(Nc2cc(N3CCN(C)CC3)nc(Sc3ccc(NC(=O)C4CC4)cc3)n2)n[nH]1 [Tozasertib] (partner 0.1 µM)
In outline: as §1

Regarding NCI-H2347, the relative viability in test [1] (first compound 0.02 µM) came to 0.303; in test [1] (first compound 0.06325 µM) it was 0.42; in test [1] (first compound 0.2 µM) it was 0.45; in test [1] (first compound 2 µM), 0.294; in test [2] (first compound 0.01 µM) it was 0.627; in test [2] (first compound 0.03162 µM), 0.495. For the same cell line, the relative viability in test [2] (first compound 0.1 µM) amounted to 0.467; in test [2] (first compound 0.3162 µM), 0.735; in test [2] (first compound 1 µM), 0.647; in test [3] (first compound 0.01 µM) it was 0.531; in test [3] (first compound 0.03162 µM), 0.713; in test [3] (first compound 0.1 µM), 0.499. Besides, the relative viability in test [3] (first compound 0.3162 µM) came to 0.615; in test [3] (first compound 1 µM), 0.56; in test [4] (first compound 0.2 µM), 0.708; in test [4] (first compound 0.6325 µM), 0.647; in test [4] (first compound 2 µM), 0.512; in test [4] (first compound 6.325 µM), 0.495. Also, the relative viability in test [4] (first compound 20 µM) was found to be 0.55.
As for NCI-H2405, the relative viability in test [1] (first compound 0.02 µM) came out at 0.338; in test [1] (first compound 0.06325 µM) it was 0.699; in test [1] (first compound 0.2 µM), 0.735; in test [1] (first compound 0.6325 µM) it was 0.651; in test [1] (first compound 2 µM), 0.682; in test [2] (first compound 0.01 µM) it was 0.512. In addition, the relative viability in test [2] (first compound 0.03162 µM) stood at 0.351; in test [2] (first compound 0.1 µM) it was 0.467; in test [2] (first compound 0.3162 µM), 0.529; in test [2] (first compound 1 µM), 0.363; in test [3] (first compound 0.01 µM), 1.07; in test [3] (first compound 0.03162 µM) it was 0.963. The relative viability in test [3] (first compound 0.1 µM) stood at 1.01; in test [3] (first compound 0.3162 µM), 1.05; in test [3] (first compound 1 µM) it was 0.31; in test [4] (first compound 0.2 µM), 0.804; in test [4] (first compound 0.6325 µM) it was 0.758; in test [4] (first compound 2 µM), 0.732. Besides, the relative viability in test [4] (first compound 6.325 µM) is 0.767; in test [4] (first compound 20 µM) it was 0.853.
On to NCI-H3122, for which the relative viability in test [1] (first compound 0.02 µM) stood at 0.97; in test [1] (first compound 0.06325 µM) it was 0.963; in test [1] (first compound 0.2 µM), 1.07; in test [1] (first compound 0.6325 µM), 1.06; in test [1] (first compound 2 µM), 1.4; in test [2] (first compound 0.01 µM), 0.616. The relative viability was determined as 0.662 in test [2] (first compound 0.03162 µM); 0.524 in test [2] (first compound 0.1 µM); 0.641 in test [2] (first compound 0.3162 µM); 0.608 in test [2] (first compound 1 µM); 0.984 in test [3] (first compound 0.01 µM); 1.03 in test [3] (first compound 0.03162 µM). Besides, the relative viability is 0.894 in test [3] (first compound 0.1 µM); 1.07 in test [3] (first compound 0.3162 µM); 1.07 in test [3] (first compound 1 µM); 0.451 in test [4] (first compound 0.2 µM); 0.381 in test [4] (first compound 0.6325 µM); 0.399 in test [4] (first compound 2 µM). Besides, the relative viability in test [4] (first compound 6.325 µM) worked out at 0.393; in test [4] (first compound 20 µM), 0.403.
For PC-3 [JPC-3], the relative viability in test [1] (first compound 0.02 µM) was found to be 0.652; in test [1] (first compound 0.06325 µM) it was 0.934; in test [1] (first compound 0.6325 µM), 0.925; in test [1] (first compound 2 µM), 0.768; in test [2] (first compound 0.01 µM), 0.768; in test [2] (first compound 0.03162 µM) it was 0.539. The relative viability in test [2] (first compound 0.1 µM) was determined as 0.664; in test [2] (first compound 0.3162 µM), 0.677; in test [2] (first compound 1 µM), 0.738; in test [3] (first compound 0.01 µM), 0.817; in test [3] (first compound 0.03162 µM) it was 0.91; in test [3] (first compound 0.1 µM), 0.589. Also, the relative viability in test [3] (first compound 0.3162 µM) turned out to be 0.916; in test [3] (first compound 1 µM), 0.416; in test [4] (first compound 0.2 µM), 0.885; in test [4] (first compound 0.6325 µM), 0.836; in test [4] (first compound 2 µM), 0.849; in test [4] (first compound 6.325 µM), 0.858. Moreover, the relative viability in test [4] (first compound 20 µM) was determined as 0.807.
For PC-14, the relative viability in test [1] (first compound 0.02 µM) was 0.388; in test [1] (first compound 0.06325 µM), 0.973; in test [1] (first compound 0.2 µM), 0.0936; in test [1] (first compound 0.6325 µM), 1.03; in test [1] (first compound 2 µM), 0.865; in test [2] (first compound 0.01 µM) it was 0.573. Further, the relative viability amounted to 0.831 in test [2] (first compound 0.03162 µM); 0.801 in test [2] (first compound 0.1 µM); 0.696 in test [2] (first compound 0.3162 µM); 0.816 in test [2] (first compound 1 µM); 0.826 in test [3] (first compound 0.01 µM); 0.673 in test [3] (first compound 0.03162 µM). Besides, the relative viability in test [3] (first compound 0.1 µM) came to 0.721; in test [3] (first compound 0.3162 µM), 0.831; in test [3] (first compound 1 µM), 0.761; in test [4] (first compound 0.2 µM), 0.606; in test [4] (first compound 0.6325 µM), 0.562; in test [4] (first compound 2 µM), 0.596. In addition, the relative viability in test [4] (first compound 6.325 µM) was 0.602; in test [4] (first compound 20 µM) it was 0.559.
